Structures are written as SMILES.

By IC50 is commonly meant the concentration at which inhibition is half-maximal.

A short description of assay [1]: Superoxide anion radical scavenging assay (xanthine/xanthine oxidase, NBT). To be noted: isolates and standards; mean ± SD, n = 3; read-out: Antioxidant Activity (IC50) Superoxide Anion Radical. Type of assay: biochemical. The text has this:
Superoxide anion radical scavenging assay.

The subject of assay [2] is lipid peroxidation in liver homogenate. Kind of assay: Inhibitory effect on lipid peroxidation (LPO) in liver homogenate, TBARS. Type of assay: biochemical, Sprague Dawley rats. To be noted: isolates and standards; rat liver homogenate; mean ± SD, n = 3; read-out: Antioxidant Activity (IC50) LPO. The text has this: Assay for inhibitory effect of lipid peroxidation. Male Sprague Dawley rats were used in the […]
Technology (approval number: […]-2018-081). Experimental animals were […]
anesthetized with isoflurane and dissected. A 0.15 M ice-cold KCl solution was perfused through the liver portal vein to remove blood from the liver and extract the liver. The liver was homogenized in KCl solution at 10 times the liver’s weight , and the protein concentration was quantified by the Bradford protein method using bovine serum albumin as a standard. A lipid peroxidation test was performed using a slightly modified version of the method described.
Reaction mixtures consisted of 300 μL of liver ho mogenate (11 mg protein/mL) , 300 μL of 50 mM Tris -HCl buffer (pH 7.5) containing 10 μM FeSO 4, and 0.4 mM ascorbic acid. Test samples (10 μL) or DMSO blanks were added to the reaction mixture and incubated at 37 °C for 30 min. After incubation, lipid peroxidation was measured by forming thiobarbituric acid reactive substance s. The mixture was subjected to a reaction at 90 °C for 30 min, followed by cooling and subsequent centrifugation (5,000 × g) for 10 min. The absorbance of the resulting supernatant was d etermined at 535 nm, and the percentage of lipid peroxidation inhibition by the sample was computed. DMSO was utilized as a control instead of the test drug, and the […]

The next assay concerns the target T1, HMG-CoA reductase (HMGR) (Homo sapiens, UniProt P04035).
T1 sequence (P04035 426-888 limits assumed): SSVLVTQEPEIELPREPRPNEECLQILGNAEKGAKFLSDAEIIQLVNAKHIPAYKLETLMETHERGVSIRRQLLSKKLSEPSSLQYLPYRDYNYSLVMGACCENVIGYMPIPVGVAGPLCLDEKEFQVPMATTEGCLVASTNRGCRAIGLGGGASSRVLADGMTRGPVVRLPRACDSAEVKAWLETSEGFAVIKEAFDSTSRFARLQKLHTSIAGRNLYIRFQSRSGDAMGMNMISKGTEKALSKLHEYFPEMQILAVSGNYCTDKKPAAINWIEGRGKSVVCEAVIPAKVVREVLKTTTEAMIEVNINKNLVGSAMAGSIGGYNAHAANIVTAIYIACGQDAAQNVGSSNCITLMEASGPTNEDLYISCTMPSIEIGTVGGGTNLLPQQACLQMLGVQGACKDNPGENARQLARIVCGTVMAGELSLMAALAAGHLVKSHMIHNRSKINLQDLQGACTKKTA
Kind of assay: HMG-CoA reductase (HMGR) inhibition assay, NADPH oxidation at 340 nm. The class given is biochemical. On the procedure:
The HMGR activity assay was optimized using a 96-well microplate reader to measure nicotinamide adenine dinucleotide phosphate (NADPH) oxidation during enzyme turnover. Each well was loaded with a mixture comprising 89 μL of 50 mM sodium phosphate buffer (pH 6.8), 0.8 mM NADPH, and 2 μg of the enzyme (2–8 units/mg). To initiate the reaction, 1 μL of the test sample and 10 μL of 0.8 mM HMG-CoA were introduced to the well. […] The activity of HMGR was assessed by monitoring the reduction in NADPH absorbance at 340 nm for a duration of 900 s at 37 °C.

A short description of assay [3]: DPPH radical scavenging assay. To be noted: read-out: Antioxidant Activity (IC50) DPPH, isolates and standards, mean ± SD, n = 3.
Experimental: As positive controls, ascorbic acid, quercetin, resveratrol, and Trolox were employed. Triplicate measurements were performed for each sample, and the mean values were determined.
The extracts and isolates were dissolved in dimethyl sulfoxide (DMSO) at concentrations
ranging from 0.1 to 10 mg/mL and 0.1 to 10 mM, respectively. Subsequently, they were
combined with an ethanol solution of DPPH (100 μM). The DPPH solution (190 μL per well)
and the samples (10 μL per well) were incubated in a 96-well microplate at 37 °C for 30 minutes
under dark conditions. The absorbance at 515 nm was quantified using a microplate reader, and
the percentage inhibition (%) of each sample was calculated by comparing it with the control
group treated with DMSO. Linear regression analysis was employed to estimate the IC50 values,
which indicated the concentration of test samples required to inhibit 50% of the free radicals.
The test system of assay [4] is THP-1 macrophage foam cells. Kind of assay: ox-LDL-induced macrophage foam cell formation, Oil Red O staining. Type of assay: cell-based. To be noted: Homo sapiens, 50 μg/mL ox-LDL, 16 h, positive control, read-out: Inhibitory effect on foam cell formation.
Experimental: This approach aimed to examine the impact of these substances on lipid accumulation and the formation of foam cells. First, we observed the effects of different concentrations (20, 40, and 60 μg/mL) of the solvent extracts on the THP-1 macrophage activity. […] As a result, we selected and optimized the concentration of 50 μg/mL for the solvent extract to be used in the subsequent experiments. […] Following the extraction of the intracellular dye using isopropanol, a quantitative assessment of the intracellular lipid content was conducted.
THP-1 cells (ATCC, TIB-202, Manassas, VA, USA) were obtained and maintained in RPMI-1640 medium (Cytiva, UT, USA), supplemented with 10% fetal bovine serum (FBS; Hyclone, Cytiva, Logan, UT, USA), penicillin (100 U/mL), streptomycin (100 μg/mL), and 2-mercaptoethanol (Sigma-Aldrich, Saint Louis, MO, USA) at a final concentration of 0.05 mM. The cells were cultured at 37 °C in a 5% CO2 atmosphere with humidity. The THP-1 cells in the suspension were treated with 50 nM phorbol-12-myristate-13-acetate (Sigma-Aldrich, USA) for 48 h. […]
THP-1 cells were seeded in 24-well plates at a density of 5 × 10^5 cells/mL and pretreated as described above. […] The absorbance at 450 nm was measured using a multi-plate reader (Synergy Neo, BioTek Instruments, Inc., Winooski, VT, USA) and statistically processed.

Consider `COC(=O)c1cc(O)c(O)c(O)c1Oc1cc2c(c(O)c1O)-c1c(cc(O)c(O)c1O)C(=O)OC1C(COC2=O)OC(O)C(OC(=O)c2cc(O)c(O)c(O)c2)C1OC(=O)c1cc(O)c(O)c(O)c1` (stereo not shown) [Compound 1, Rugosin B methyl ester], for which the IC50 in assay [1] worked out at 4.29 ± 0.23 µM; in assay [2], 3.54 ± 0.29 µM; on HMG-CoA reductase (HMGR), 1.46 ± 0.22 µM; in assay [3], 3.62 ± 0.57 µM.
For the compound `O=C(OC1C(O)OC2COC(=O)c3cc(Oc4c(C(=O)O)cc(O)c(O)c4O)c(O)c(O)c3-c3c(cc(O)c(O)c3O)C(=O)OC2C1OC(=O)c1cc(O)c(O)c(O)c1)c1cc(O)c(O)c(O)c1` (stereo not shown) [Compound 2, rugosin B], the IC50 was found to be 5.53 ± 0.21 µM in assay [1], 6.02 ± 0.14 µM in assay [2], 17.7 ± 0.04 µM against HMG-CoA reductase (HMGR) and 3 ± 0.08 µM in assay [3].
For `COC(=O)c1cc(O)c(O)c(O)c1Oc1cc2c(c(O)c1O)-c1c(cc(O)c(O)c1O)C(=O)O[C@H]1[C@H](OC(=O)c3cc(O)c(O)c(O)c3)[C@@H](OC(=O)c3cc(O)c(O)c(O)c3)[C@H](OC(=O)c3cc(O)c(O)c(O)c3)O[C@@H]1COC2=O` [Compound 3, rugosin A methyl ester] the same measures were 4.25 ± 0.11 µM, 3.83 ± 0.52 µM, 8.4 ± 0.84 µM and 4.27 ± 0.45 µM.
The corresponding values for `O=C(O[C@@H]1O[C@@H]2COC(=O)c3cc(Oc4c(C(=O)O)cc(O)c(O)c4O)c(O)c(O)c3-c3c(cc(O)c(O)c3O)C(=O)O[C@H]2[C@H](OC(=O)c2cc(O)c(O)c(O)c2)[C@H]1OC(=O)c1cc(O)c(O)c(O)c1)c1cc(O)c(O)c(O)c1` [Compound 4, rugosin A] are 3.21 ± 0.05 µM, 3.75 ± 0.52 µM, 12.2 ± 0.5 µM and 3.19 ± 0.13 µM.
The corresponding values for `O=C(O[C@@H]1O[C@@H]2COC(=O)c3cc(O)c(O)c(O)c3-c3c(cc(O)c(O)c3O)C(=O)O[C@H]2[C@H](OC(=O)c2cc(O)c(O)c(O)c2)[C@H]1OC(=O)c1cc(O)c(O)c(O)c1)c1cc(O)c(O)c(O)c1` [Compound 5, eugeniin] are 4.75 ± 0.14 µM, 3.61 ± 0.34 µM, 26.7 ± 0.9 µM and 4.34 ± 0.17 µM.
`O=C(OC1C(O)OC2COC(=O)c3cc(O)c(O)c(O)c3-c3c(cc(O)c(O)c3O)C(=O)OC2C1OC(=O)c1cc(O)c(O)c(O)c1)c1cc(O)c(O)c(O)c1` (stereo not shown) [Compound 6, tellimagrandin I]: the IC50 in assay [1] is 4.1 ± 0.53 µM; in assay [2], 3.93 ± 0.53 µM; against HMG-CoA reductase (HMGR) it was more than 50 µM; in assay [3], 4.7 ± 0.14 µM.
For `O=C(OC[C@H]1O[C@@H](OC(=O)c2cc(O)c(O)c(O)c2)[C@H](OC(=O)c2cc(O)c(O)c(O)c2)[C@@H](OC(=O)c2cc(O)c(O)c(O)c2)[C@@H]1OC(=O)c1cc(O)c(O)c(O)c1)c1cc(O)c(O)c(O)c1` [Compound 7, 1,2,3,4,6-penta-O-galloyl-β-D-glucose] the same measures were 4.47 ± 0.07 µM, 3.87 ± 0.61 µM, 4.98 ± 0.18 µM and 3.81 ± 0.19 µM.
For `O=C(OC[C@H]1OC(O)[C@H](OC(=O)c2cc(O)c(O)c(O)c2)[C@@H](OC(=O)c2cc(O)c(O)c(O)c2)[C@@H]1OC(=O)c1cc(O)c(O)c(O)c1)c1cc(O)c(O)c(O)c1` (stereo partly drawn) [Compound 8, 2,3,4,6-tetra-O-galloyl-D-glucose] the same measures were 3.6 ± 0.23 µM, 3.54 ± 0.15 µM, 13.8 ± 1.53 µM and 20.9 ± 0.98 µM.
For the compound `O=C(OC[C@H]1O[C@@H](OC(=O)c2cc(O)c(O)c(O)c2)[C@H](OC(=O)c2cc(O)c(O)c(O)c2)[C@@H](OC(=O)c2cc(O)c(O)c(O)c2)[C@@H]1O)c1cc(O)c(O)c(O)c1` [Compound 9, 1,2,3,6-tetra-O-galloyl-β-D-glucose], the IC50 came to 4.64 ± 0.45 µM in assay [1], 5.88 ± 0.13 µM in assay [2], 41.5 ± 3.9 µM at HMG-CoA reductase (HMGR) and 3.94 ± 0.25 µM in assay [3]. At HMG-CoA reductase (HMGR), the “HMGR inhibition, result in words” value is recorded as “weak effect”.
Regarding `O=C(O)[C@H]1O[C@@H](Oc2c(-c3ccc(O)c(O)c3)oc3cc(O)cc(O)c3c2=O)[C@H](O)[C@@H](O)[C@@H]1O` [Compound 10, quercetin 3-glucuronic acid], the IC50 in assay [1] is 21.5 ± 2.03 µM; in assay [2], 34.1 ± 2.98 µM; against HMG-CoA reductase (HMGR) it was more than 50 µM; in assay [3] it was 15.7 ± 0.15 µM.
For `O=C(O)[C@H]1O[C@@H](Oc2c(O)cc(O)c3c(=O)c(O)c(-c4ccc(O)cc4)oc23)[C@H](O)[C@@H](O)[C@@H]1O` [Compound 11, kaempferol 8-O-glucuronic acid] the same measures were 17.7 ± 0.3 µM, more than 50 µM, more than 50 µM and 23 ± 0.45 µM.
Regarding `CC[C@H](C)C(=O)O[C@H]1C[C@H](O)C=C2C=C[C@H](C)[C@H](CC[C@@H](O)C[C@@H](O)CC(=O)O)[C@H]21` [Pravastatin], the inhibition at 5 µM in assay [4] amounted to 77%.
Regarding `O=c1c(O)c(-c2ccc(O)c(O)c2)oc2cc(O)cc(O)c12` [Quercetin, reference compound], the IC50 turned out to be 21.3 ± 0.34 µM in assay [1], 7.45 ± 1.33 µM in assay [2], 17.3 ± 1.09 µM in assay [3] and 42.1 µM in assay [3] (listed as quercetin).
With `Oc1ccc(/C=C/c2cc(O)cc(O)c2)cc1` [Resveratrol, reference compound], the IC50 in assay [1] was more than 50 µM; in assay [2], 47.6 ± 6.35 µM; in assay [3] it was 42.1 ± 1.91 µM.
For the compound `Cc1c(C)c2c(c(C)c1O)CCC(C)(C(=O)O)O2` (stereo not shown) [Trolox, reference compound], the concentration for half-maximal inhibition (IC50) is more than 50 µM in assay [1], 33.2 ± 3.6 µM in assay [2] and 31.3 ± 1.27 µM in assay [3].
For the compound `O=C1O[C@H]([C@@H](O)CO)C(O)=C1O` [Vitamin C, ascorbic acid, reference compound], the figures for the IC50 in assay [1] and in assay [3] were more than 50 µM and 31.7 ± 0.21 µM, respectively.

The record behind these values is PMC10818259, “Antioxidant and Inhibitory Activities of Filipendula glaberrima Leaf Constituents against HMG-CoA Reductase and Macrophage Foam Cell Formation” (Molecules, 2024).
